Reference: patent US7888369B2, “Oxazoloisoquinoline derivatives as thrombin receptor antagonists” (Schering Corporation, priority 2005, dated 2011)

Biological target: T1, thrombin receptor (Homo sapiens, UniProt P25116)
T1 construct: tissue North Jersey Blood Center (East Orange, N.J.); host or cells: platelet membranes prepared from platelet concentrates
T1 sequence (P25116 22-425): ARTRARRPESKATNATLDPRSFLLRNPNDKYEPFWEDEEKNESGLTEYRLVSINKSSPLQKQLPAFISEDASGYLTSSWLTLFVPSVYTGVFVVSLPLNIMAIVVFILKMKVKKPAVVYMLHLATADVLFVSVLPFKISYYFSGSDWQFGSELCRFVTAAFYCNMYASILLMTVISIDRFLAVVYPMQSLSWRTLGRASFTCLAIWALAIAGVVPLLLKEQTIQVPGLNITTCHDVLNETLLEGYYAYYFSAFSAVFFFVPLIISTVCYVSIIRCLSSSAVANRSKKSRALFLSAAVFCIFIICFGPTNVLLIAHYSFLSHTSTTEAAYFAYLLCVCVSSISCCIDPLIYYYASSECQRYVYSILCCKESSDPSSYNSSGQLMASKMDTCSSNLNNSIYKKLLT
Test: High throughput thrombin receptor radioligand binding assay ([3H]haTRAP, platelet membranes)
Procedure: In Vitro Testing Procedure for Thrombin Receptor Antagonists:
Preparation of [^3H]ha TRAP
A(pF-F)R(ChA)(hR)(I2—Y)—NH2 (1.03 mg) and 10% Pd/C (5.07 mg) were suspended in DMF (250 μl) and diisopropylethylamine (10 μl). The vessel was attached to the tritium line, frozen in liquid nitrogen and evacuated. Tritium gas (342 mCi) was then added to the flask, which was stirred at room temperature for 2 hours. At the completion of the reaction, the excess tritium was removed and the reacted peptide solution was diluted with DMF (0.5 ml) and filtered to remove the catalyst. The collected DMF solution of the crude peptide was diluted with water and freeze dried to remove the labile tritium. The solid peptide was redissolved in water and the freeze drying process repeated. The tritiated peptide ([^3H]haTRAP) was dissolved in 0.5 ml of 0.1% aqueous TFA and purified by HPLC using the following conditions: column, Vydac™ C18, 25 cm×9.4 mm I.D.; mobile phase, (A) 0.1% TFA in water, (B) 0.1% TFA in CH3CN; gradient, (A/B) from 100/0 to 40/60 over 30 min; flow rate, 5 ml/min; detection, UV at 215 nm. The radiochemical purity of [^3H]haTRAP was 99% as analyzed by HPLC. A batch of 14.9 mCi at a specific activity of 18.4 Ci/mmol was obtained.
Preparation of Platelet Membranes
Platelet membranes were prepared using a modification of the method of Natarajan et al. (Natarajan et al, Int. J. Peptide Protein Res. 45:145-151 (1995)) from 20 units of platelet concentrates obtained from the North Jersey Blood Center (East Orange, N.J.) within 48 hours of collection. All steps were carried out at 4° C. under approved biohazard safety conditions. Platelets were centrifuged at 100×g for 20 minutes at 4° C. to remove red cells. The supernatants were decanted and centrifuged at 3000×g for 15 minutes to pellet platelets. Platelets were re-suspended in 10 mM Tris-HCl, pH 7.5, 150 mM NaCl, 5 mM EDTA, to a total volume of 200 ml and centrifuged at 4400×g for 10 minutes. This step was repeated two additional times. […] Protein concentration was determined by a Lowry assay (Lowry et al., J. Biol. Chem., 193:265-275 (1951)). […]

Structure (SMILES): O=C1OC[C@@H]2C(/C=C/c3ccc(-c4cccc(F)c4)cn3)c3ccccc3CN12 (single isomer, unassigned) [Compound 12, 10-{2-[5-(3-Fluoro-phenyl)-pyridin-2-yl]-vinyl}-1,5,10,10a-tetrahydro-oxazolo[3,4-b]isoquinolin-3-one]
- inhibition at 1 µM (at 1 μM, read-out: Thrombin Receptor Antagonist Activity: % inhibition): 27%

Structure (SMILES): O=C1OC[C@@H]2C(/C=C/c3ccc(-c4cccc(F)c4)cn3)c3ccccc3CN12 (single isomer, unassigned) [Compound 13, 10-{2-[5-(3-Fluoro-phenyl)-pyridin-2-yl]-vinyl}-1,5,10,10a-tetrahydro-oxazolo[3,4-b]isoquinolin-3-one]
- Thrombin Receptor Antagonist Activity: % inhibition (at 1 μM): 15%

Structure (SMILES): O=C1OC[C@@H]2C(/C=C/c3ccc(-c4cccc(F)c4)cn3)C3CCCCC3CN12 (stereo partly drawn) [Compound 16]
- Ki: 0.012 µM
